One experiment deals with T1, p53-Y220C mutant protein (Homo sapiens, UniProt P04637, Y220C).
T1 construct: The recombinant Y220C p53 DBD protein with his-tag
Description: In vitro DNA binding activity assay (TR-FRET). Conditions: concentration required to increase the binding activity of protein to DNA by 50%. It is filed as biochemical. The method in brief:
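SC150, the compound concentration increasing p53-Y220C DNA binding by 50% relative to vehicle, came from background-corrected 665/615 nm TR-FRET ratios. His-tagged DBD and compound were preincubated 60 min at RT before biotin-DNA plus Eu-anti-His/streptavidin-d2 detection overnight in the dark.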
(TR-FRET usually uses a lanthanide donor and a delayed reading to cut background.)

For another experiment, the system named is NUGC-3 cells. Description: NUGC-3 cell proliferation assay (CTG, 7 days). Type of experiment: cell-based, human. The note with it: Homo sapiens, NUGC-3, 168 h. The essentials:
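Cells (200/well) in 1640 medium with 10% serum exposed to 10-point, 3-fold DMSO dilutions (duplicates) for 7 days at 37°C. Viability read by CellTiter-Glo luminescence; % inhibition normalized to DMSO and blank, IC50 from variable-slope nonlinear fit.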

Experiment [1] concerns the target CYP 3A4 enzyme in human liver microsomes (Homo sapiens, UniProt P08684). Put plainly: CYP3A4 inhibition experiment in human liver microsomes. The method, then:
The inhibitory effects of the test compounds on CYP 3A4T (with testosterone as substrate) and 3A4M (with midazolam as substrate) in human liver microsomes were evaluated in vitro to assess the medication safety of the compounds.
This study used the human liver microsome system and the cytochrome P450 enzyme probe substrate recommended by FDA guidelines for in vitro drug interaction studies to investigate the inhibition of the CYP 3A4 enzyme in human liver microsomes by the test compounds.
Test group (TG): Human liver microsomes were incubated with different concentrations of test compounds, NADPH (final concentration 2.00 mM) and probe substrates of different sub-enzymes (Table 4) for 5 min.
Positive control group (PC): Human liver microsomes were incubated with inhibitors (Table 4), NADPH (final concentration 2.00 mM) and probe substrates of different sub-enzymes (Table 4) for 5 min. Table 4 Probe substrates of sub-enzymes, inhibitors and incubation systems
The system was pre-incubated at 37°C for 5 min, and then 15 µL of 8 mM NADPH solution preheated at 37°C for 5-10 min to start the reaction. After incubation of the 96-well plate at 37°C for 5 min, 180 µL of acetonitrile:methanol (ACN:MeOH=1:1) solution containing internal standard (IS) was added to terminate the reaction. […] 80 µL of the supernatant was taken, added to 120 µL of ultrapure water, shaken evenly, and then detected by LC-MS/MS.
199 µL of 0.2 mg/mL HLM and 1 µL of 1 mM positive control inhibitor (ketoconazole) working solutions were taken and mixed evenly. 30 µL of the drug-containing liver microsome solution was taken and added to a 96-well plate, then 10 µL of substrate working solution (20 µM midazolam) was added, in duplicate. The system was pre-incubated at 37°C for 5 min, and then 15 µL of 8 mM NADPH solution preheated at 37°C for 5-10 min to start the reaction. After incubation of the 96-well plate at 37°C for 5 min, 180 µL of ACN:MeOH(1:1) solution containing IS was added to terminate the reaction. […] 80 µL of the supernatant was taken, added to 120 µL of ultrapure water, shaken evenly, and then detected by LC-MS/MS.
4.2.5.1 The relative activity of CYP450 sub-enzymes at different concentrations was calculated by dividing the peak area ratio (analyte peak area/internal standard peak area) of metabolites in the presence of the test sample or positive control by the peak area ratio of metabolites in the solvent control sample in the absence of the test article or positive control, according to the following formula: [formula] [formula]
4.2.5.2 Half maximal inhibitory concentration (IC50) was obtained by fitting according to the following model formula using Prism software: Y = Bottom + (Top−Bottom)/(1+10^(∧)((LogIC50−X)×HillSlope)) [formula]
X is the test sample concentration converted to logarithm (Log µM), Y is the relative activity (% of NC), Bottom and Top represent the percentage of enzyme activity at the bottom platform and top platform of the curve, respectively, and HillSlope represents the slope; to optimize the fitting effect, the use of other (nonlinear) dose-response models for fitting is not considered as a deviation from the protocol.

Setting [2] is: CYP 3A4M IC50, human liver microsomes, midazolam as substrate.
Where [3] appears, read: CYP 3A4T IC50, human liver microsomes, testosterone as substrate.
[4] abbreviates: NUGC-3 cell proliferation, 7 days, CTG, read-out: IC50.

Where two headings read alike, the source gives them in different places. A value given as a limit tells only on which side of the number the result lay.

CYP 3A4 enzyme in human liver microsomes, sequence (P08684 whole entry): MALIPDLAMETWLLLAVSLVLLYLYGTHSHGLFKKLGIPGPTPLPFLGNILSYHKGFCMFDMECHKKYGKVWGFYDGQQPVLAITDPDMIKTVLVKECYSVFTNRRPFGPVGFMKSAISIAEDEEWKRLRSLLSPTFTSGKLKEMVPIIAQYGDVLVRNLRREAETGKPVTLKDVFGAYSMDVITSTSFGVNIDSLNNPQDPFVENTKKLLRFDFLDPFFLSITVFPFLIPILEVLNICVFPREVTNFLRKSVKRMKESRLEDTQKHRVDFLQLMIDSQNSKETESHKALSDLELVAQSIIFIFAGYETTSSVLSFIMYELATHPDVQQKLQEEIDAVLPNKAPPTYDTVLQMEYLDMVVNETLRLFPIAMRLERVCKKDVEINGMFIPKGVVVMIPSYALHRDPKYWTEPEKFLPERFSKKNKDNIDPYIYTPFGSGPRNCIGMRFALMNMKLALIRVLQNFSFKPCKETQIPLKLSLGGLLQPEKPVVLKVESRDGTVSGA

A word on the IC50: it is the concentration that gives 50% inhibition. With `CC(C)N1CC[C@@H](Nc2cccc3c(CC(F)(F)F)c(C#CCNC(=O)c4cnn(C(C)(C)C)c4N)nn23)[C@@H](F)C1` [Compound 354], the SC150 on p53-Y220C mutant protein turned out to be 3 nM. For the same compound, the IC50 in the experiment on NUGC-3 cells was 0.177 µM; in experiment [1] (setting [2]) it was 15.6 µM; in experiment [1] (setting [3]), 18.5 µM.
`Cc1cc(C(=O)NCC#Cc2nn3c(N[C@@H]4CCN(C)C[C@@H]4F)cccc3c2CC(F)(F)F)co1` [Compound 278, N-[3-(7-{[(3S,4R)-3-fluoro-1-methylpiperidin-4-yl]amino}-3-(2,2,2-trifluoroethyl)pyrazolo[1,5-a]pyridin-2-yl)prop-2-yn-1-yl]-5-methylfuran-3-carboxamide] registered an SC150 at p53-Y220C mutant protein of 24 nM. For the same compound, the 50% inhibitory concentration (IC50) is 1.12 µM with NUGC-3 cells (setting [4]), 14.7 µM in experiment [1] (setting [2]) and 13 µM in experiment [1] (setting [3]).
For the compound `CC(n1ncc(C(=O)NCC#Cc2nn3c(N[C@@H]4CCN(C)C[C@@H]4F)cccc3c2CC(F)(F)F)c1N)C(F)(F)F` (single isomer, unassigned) [Compound 355A], the SC150 at p53-Y220C mutant protein was 7 nM. Moreover, the IC50 with NUGC-3 cells (setting [4]) is 0.167 µM; in experiment [1] (setting [2]) it was above 30 µM; in experiment [1] (setting [3]), 14.1 µM.
`CCn1ccc(C(=O)NCC#Cc2nn3c(N[C@@H]4CCN(C)C[C@@H]4F)cccc3c2CC(F)(F)F)c1` [Compound 277, 1-ethyl-N-[3-(7-{[(3S,4R)-3-fluoro-1-methylpiperidin-4-yl]amino}-3-(2,2,2-trifluoroethyl)pyrazolo[1,5-a]pyridin-2-yl)prop-2-yn-1-yl]-1H-pyrrole-3-carboxylic acid amide] came in with an SC150 on p53-Y220C mutant protein of 14 nM. Besides, the IC50 with NUGC-3 cells came to 0.726 µM; in experiment [1] (setting [2]), 12.4 µM; in experiment [1] (setting [3]), 15.8 µM.
Compound `CN1CC[C@@H](Nc2cccc3c(CC(F)(F)F)c(C#CCNC(=O)c4ccn(C(C)(C)C)c4)nn23)[C@@H](F)C1` [Compound 087, 1-(tert-butyl)-N-(3-(7-{[(3S,4R)-3-fluoro-1-methylpiperidin-4-yl]amino}-3-(2,2,2-trifluoroethyl)pyrazolo[1,5-a]pyridin-2-yl)prop-2-yn-1-yl)-1H-pyrrole-3-carboxamide] showed an SC150 at p53-Y220C mutant protein of 19 nM. Further, the IC50 with NUGC-3 cells (setting [4]) is 1.37 µM; in experiment [1] (setting [2]), above 30 µM; in experiment [1] (setting [3]) it was above 30 µM.

The values are drawn from EP4737449A1 (Changchun Genescience Pharmaceutical Co., Ltd., priority 2023, dated 2025).
